Experimental data from US20230225315A1, “METHODS OF DELIVERING PLANT VIRUS-BASED NANOPESTICIDES” (priority 2019, published 2023).

Columns and labels:
[1] = Soil column mobility (soil transport behaviour); assay type: physicochemical
Method: […] […] (pH 7.0) to the centre of the soil surface at the top of the column We added 10 mM KP buffer (pH 7.0) at a constant flow rate of 1.5 ml min^−1 and collected the eluent in 500-μL fractions. Up to 150 fractions were collected in each trial (two trials for each formulation and depth) and stored at 4° C.
The elution fractions containing TMGMV, PhMV or CPMV were analysed by SDS-PAGE to determine the mass of nanoparticles recovered in each elution fraction. […] TMGMV and PhMV were analysed on 4-12% NuPage polyacrylamide SDS gels cast according to the Surecast Handcast protocol (Invitrogen). […]
All nanoparticles were imaged in triplicate and the images were analysed using ImageJ The area under the curve (AUC) of the standards was used to create a linear standard curve relating the AUC of the elution samples to the total mass of nanoparticles present in the corresponding elution fraction. […]
To establish the soil transport behaviour of each formulation, we conducted mobility studies using a cylindrical column of diameter 28 mm packed with topsoil at a constant bulk density of 0.32 g cm^−3. […] Fractions containing virus-based formulations were analysed by SDS-PAGE to determine the mass of recovered nanoparticles. […]

nematode = settings: concentration to be achieved in the rhizosphere; cited from earlier work
[2] = cited from earlier work

Substance	soil depth penetrated by free Cy5 ([1]; 500 μg free Cy5, soil column 10 mm diameter) [cm]	mass of injected Cy5 recovered ([1]; free Cy5, column with a soil depth of 2 cm)	IC50 value (nematode)	solubility in water [2]
Cyanine 5 [Cy5]	≤ 4	About 40%		
abamectin			1.309×10^−4 mg cm^−3	insoluble
